Laboratory results as given in patent US6506766B1 (Abbott Laboratories, priority 1998, dated 2003).
Like-named read-outs stand apart in the source and are kept apart here.

Assays:
[1] = target: T1, human progesterone receptor-A [PRA] isoform (Homo sapiens, UniProt P06401); experiment: Radioligand binding with human progesterone receptor cytosol ([3H]-progesterone competition); details: PRA cytosol expressed in insect SF21 cells, [3H]Prog ~0.8 nM, 4° C. overnight; Ki by Cheng-Prusoff, KL ~4.5 nM; read-out: Ki (nM) PR
T1 construct: host or cells: insect SF21 cells (baculovirus)
T1 sequence (P06401 1-769 isoform P06401-2): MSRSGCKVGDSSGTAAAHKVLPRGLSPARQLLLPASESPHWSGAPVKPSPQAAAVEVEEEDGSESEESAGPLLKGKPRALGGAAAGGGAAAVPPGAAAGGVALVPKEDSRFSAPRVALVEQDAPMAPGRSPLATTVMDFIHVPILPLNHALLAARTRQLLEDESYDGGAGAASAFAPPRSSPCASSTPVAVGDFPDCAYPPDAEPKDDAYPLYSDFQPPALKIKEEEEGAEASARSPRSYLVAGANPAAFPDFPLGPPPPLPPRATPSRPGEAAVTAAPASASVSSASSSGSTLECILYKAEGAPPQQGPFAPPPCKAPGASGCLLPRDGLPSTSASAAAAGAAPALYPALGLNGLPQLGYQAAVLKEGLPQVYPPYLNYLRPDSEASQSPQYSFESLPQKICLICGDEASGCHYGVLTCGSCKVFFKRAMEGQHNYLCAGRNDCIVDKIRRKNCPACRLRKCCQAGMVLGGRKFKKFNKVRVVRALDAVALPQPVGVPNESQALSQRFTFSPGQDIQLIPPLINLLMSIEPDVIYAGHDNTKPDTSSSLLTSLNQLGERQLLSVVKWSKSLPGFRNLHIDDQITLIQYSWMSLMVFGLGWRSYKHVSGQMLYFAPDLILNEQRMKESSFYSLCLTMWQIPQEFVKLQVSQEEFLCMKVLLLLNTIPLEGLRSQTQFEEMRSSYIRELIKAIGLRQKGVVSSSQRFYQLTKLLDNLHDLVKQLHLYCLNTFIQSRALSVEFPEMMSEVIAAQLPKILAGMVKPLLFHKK

[2] = target: T2, human glucocorticoid receptor-α [GRX] isoform (Homo sapiens, UniProt P04150); experiment: Radioligand binding with human glucocorticoid receptor cytosol ([3H]-dexamethasone competition)
T2 construct: host or cells: insect SF21 cells (baculovirus)
T2 sequence (P04150 1-777): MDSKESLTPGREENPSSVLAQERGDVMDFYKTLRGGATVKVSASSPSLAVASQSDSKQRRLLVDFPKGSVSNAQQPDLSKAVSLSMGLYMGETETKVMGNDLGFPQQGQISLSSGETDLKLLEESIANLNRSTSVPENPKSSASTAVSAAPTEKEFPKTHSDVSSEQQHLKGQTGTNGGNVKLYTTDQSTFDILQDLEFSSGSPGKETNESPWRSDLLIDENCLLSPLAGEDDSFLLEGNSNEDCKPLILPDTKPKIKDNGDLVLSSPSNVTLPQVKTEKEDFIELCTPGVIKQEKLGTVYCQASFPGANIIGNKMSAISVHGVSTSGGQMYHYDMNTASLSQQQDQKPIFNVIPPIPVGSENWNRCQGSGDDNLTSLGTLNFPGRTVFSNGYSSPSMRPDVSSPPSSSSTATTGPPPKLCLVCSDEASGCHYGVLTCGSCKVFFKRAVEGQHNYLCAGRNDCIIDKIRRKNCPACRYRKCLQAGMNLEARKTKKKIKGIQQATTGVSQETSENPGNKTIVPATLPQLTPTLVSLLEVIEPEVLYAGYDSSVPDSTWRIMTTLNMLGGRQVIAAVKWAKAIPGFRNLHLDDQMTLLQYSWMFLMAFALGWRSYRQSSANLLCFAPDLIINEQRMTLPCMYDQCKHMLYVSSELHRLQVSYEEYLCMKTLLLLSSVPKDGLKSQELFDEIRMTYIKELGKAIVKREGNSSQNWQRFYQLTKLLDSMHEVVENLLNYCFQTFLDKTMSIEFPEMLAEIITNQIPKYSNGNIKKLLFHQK

[3] = GRX cytosol expressed in insect SF21 cells, [3H]-Dex ~0.9 nM, 4° C. overnight, Ki by Cheng-Prusoff, KL ~[…], read-out: Ki (nM) GR

Ki [1] | Ki [2, 3] | SMILES | Ki ([2]; Ki (nM) GR)
2750 nM | 9.5 nM | COC(=O)/C=C/C1Oc2cccc(OC)c2-c2ccc3c(c21)C(C)=CC(C)(C)N3 (stereo not shown) [Example 179, (E) 2,5-Dihydro-10-methoxy-5-(2-carbomethoxy-1-ethenyl)-2,2,4-trimethyl-1H-[1]benzopyrano[3,4-f]quinoline] | –
733 nM | 18 nM | C/C=C\C1Oc2cccc(OC)c2-c2ccc3c(c21)C(C)=CC(C)(C)N3 (stereo not shown) [Example 180, (Z)-2,5-Dihydro-10-methoxy-5-(1-propenyl)-2,2,4-trimethyl-1H-[1]benzopyrano[3,4-f]quinoline] | –
≥ 10000 nM | 207 nM | COc1cccc2c1-c1ccc3c(c1C(/C=C/CO)O2)C(C)=CC(C)(C)N3 (stereo not shown) [Example 181, (E) 2,5-Dihydro-10-methoxy-5-(3-hydroxy-1-propenyl)-2,2,4-trimethyl-1H-[1]benzopyrano[3,4-f]quinoline] | –
≥ 10000 nM | 23 nM | COc1cccc2c1-c1ccc3c(c1C(/C=C/COC(=O)N(C)C)O2)C(C)=CC(C)(C)N3 (stereo not shown) [Example 182, (E) 2,5-Dihydro-10-methoxy-5-(3-(N,N-dimethylaminocarbonyloxy)-1-propenyl)-2,2,4-trimethyl-1H-[1]benzopyrano[3,4-f]quinoline] | –
≥ 10000 nM | 38 nM | COCOC/C=C/C1Oc2cccc(OC)c2-c2ccc3c(c21)C(C)=CC(C)(C)N3 (stereo not shown) [Example 183, (E) 2,5-Dihydro-10-methoxy-5-(3-methoxymethoxy-1-propenyl)-2,2,4-trimethyl-1H-[1]benzopyrano[3,4-f]quinoline] | –
≥ 10000 nM | 90 nM | COc1cccc2c1-c1ccc3c(c1C(CC=O)O2)C(C)=CC(C)(C)N3 (stereo not shown) [Example 186, 2-(2,5-Dihydro-10-methoxy-2,2,4-trimethyl-1H-[1]benzopyrano[3,4-f]quinolin-5-yl)acetaldehyde] | –
1190 nM | 2.9 nM | C/C=C/CC1Oc2cccc(OC)c2-c2ccc3c(c21)C(C)=CC(C)(C)N3 (stereo not drawn) [Example 191, trans 2,5-Dihydro-10-methoxy-5-(2-butenyl)-2,2,4-trimethyl-1H-[1]benzopyrano[3,4-f]quinoline] | –
≥ 10000 nM | 3.1 nM | CC/C=C/CC1Oc2cccc(OC)c2-c2ccc3c(c21)C(C)=CC(C)(C)N3 (stereo not drawn) [Example 192, trans 2,5-Dihydro-10-methoxy-5-(2-penten-1-yl)-2,2,4-trimethyl-1H-[1]benzopyrano[3,4-f]quinoline] | –
2130 nM | 0.65 nM | C/C=C/CC1Oc2cccc(OC)c2-c2ccc3c(c21)C(C)=CC(C)(C)N3 (stereo not shown) [Example 198, (E) 2,5-Dihydro-10-methoxy-5-(2-butenyl)-2,2,4-trimethyl-1H-[1]benzopyrano[3,4-f]quinoline] | –

More lines, now with the values behind:

SMILES | Ki [1] | Ki [2, 3] | Ki ([2]; Ki (nM) GR)
COCC1=CC(C2Oc3cccc(OC)c3-c3ccc4c(c32)C(C)=CC(C)(C)N4)CCC1 (stereo not shown) [Example 160] | ≥ 10000 nM | 1.8 nM | –
COc1cccc2c1-c1ccc3c(c1C(C1C=C(COC(C)=O)CCC1)O2)C(C)=CC(C)(C)N3 [Example 163, rel (5R, 3′R) 2,5-Dihydro-10-methoxy-5-(1-acetoxymethyl-3-cyclohexenyl)-2,2,4-trimethyl-1H-[1]benzopyrano[3,4-f]quinoline] | ≥ 10000 nM | 2.6 nM | –
COCC1=CC(C2Oc3cccc(OC)c3-c3ccc4c(c32)C(C)=CC(C)(C)N4)CCC1 (stereo not shown) [Example 164] | ≥ 10000 nM | 36 nM | –
CNCC1=CC(C2Oc3cccc(OC)c3-c3ccc4c(c32)C(C)=CC(C)(C)N4)CCC1 [Example 170, rel (5R, 3′R) 2,5-Dihydro-10-methoxy-5-(1-(N-methylamino)methyl-3-cyclohexenyl)2,2,4-trimethyl-1H-[1]benzoppyrano[3,4-f]quinoline] | ≥ 10000 nM | 82 nM | –
C=C(C)CC1Oc2cccc(OC)c2-c2ccc3c(c21)C(C)=CC(C)(C)N3 (stereo not shown) [Example 171, 2,5-Dihydro-10-methoxy-5-(2-methyl-3-propenyl)-2,2,4-trimethyl-1H-[1]benzopyrano[3,4-f]quinoline] | 7430 nM | 3.3 nM | –
COc1cccc2c1-c1ccc3c(c1C(CC1CO1)O2)C(C)=CC(C)(C)N3 (stereo not shown) [Example 175, 2,5-Dihydro-10-methoxy-5-(1,2-epoxy-3-propenyl)-2,2,4-trimethyl-1H-[1]benzopyrano[3,4-f]quinoline] | 7700 nM | 44 nM | –
COc1cccc2c1-c1ccc3c(c1C(CCCN1C(=O)c4ccccc4C1=O)O2)C(C)=CC(C)(C)N3 (stereo not shown) [Example 176] | > 10000 nM | 88 nM | –
COc1cccc2c1-c1ccc3c(c1C(CCCNC(=O)NN)O2)C(C)=CC(C)(C)N3 (stereo not shown) [Example 178, 2,5-Dihydro-10-methoxy-5-(1-(hydrazinocarbonylamino)-3-propyl)-2,2,4-trimethyl-1H-[1]benzopyrano[3,4-f]quinoline] | ≥ 10000 nM | 468 nM | –
COc1cccc2c1-c1ccc3c(c1C(CC(=O)N(C)OC)O2)C(C)=CC(C)(C)N3 (stereo not shown) [Example 185, Methyl 2-(2,5-Dihydro-10-methoxy-2,2,4-trimethyl-1H-[1]benzopyrano[3,4-f]quinolin-5-yl)acetyl Hydroxamate] | ≥ 10000 nM | 288 nM | –
COc1cccc2c1-c1ccc3c(c1C(CC=C1CCCC1)O2)C(C)=CC(C)(C)N3 (stereo not shown) [Example 188, 2,5-Dihydro-10-methoxy-5-(2-cyclopentylidenylethyl)-2,2,4-trimethyl-1H-[1]benzopyrano[3,4-f]quinoline] | 5300 nM | – | 4.9 nM
COc1cccc2c1-c1ccc3c(c1C(CC=C(C)C)O2)C(C)=CC(C)(C)N3 (stereo not shown) [Example 190, 2,5-Dihydro-10-methoxy-5-(3-methyl-2-butenyl)-2,2,4-trimethyl-1H-[1]benzopyrano[3,4f-]quinoline] | 1590 nM | 6.25 nM | –
COc1cccc2c1-c1ccc3c(c1C(CC=C(F)F)O2)C(C)=CC(C)(C)N3 (stereo not shown) [Example 193, 2,5-Dihydro-10-methoxy-5-(1,1-difluoro-1-propen-3-yl)-2,2,4-trimethyl-1H-[1]benzopyrano[3,4-f]quinoline] | 2180 nM | – | 2 nM
COC(=O)/C=C/CC1Oc2cccc(OC)c2-c2ccc3c(c21)C(C)=CC(C)(C)N3 (stereo not shown) [Example 194] | ≥ 10000 nM | 7.7 nM | –
COc1cccc2c1-c1ccc3c(c1C(C/C=C/CO)O2)C(C)=CC(C)(C)N3 (stereo not shown) [Example 195, (E) 2,5-Dihydro-10-methoxy-5-(4-hydroxy-2-buten-1-yl)-2,2,4-trimethyl-1H-[1]benzopyrano[3,4-f]quinoline] | ≥ 10000 nM | 25 nM | –
COc1cccc2c1-c1ccc3c(c1C(C/C=C/COC(=O)N(C)C)O2)C(C)=CC(C)(C)N3 (stereo not shown) [Example 196, (E) 2,5-Dihydro-10-methoxy-5-(4-(N,N-dimethylaminocarbonyloxy)-2-buten-1-yl)-2,2,4-trimethyl-1H-[1]benzopyrano[3,4-f]quinoline] | ≥ 10000 nM | 1.1 nM | –
CNC(=O)OC/C=C/CC1Oc2cccc(OC)c2-c2ccc3c(c21)C(C)=CC(C)(C)N3 (stereo not shown) [Example 197, (E) 2,5-Dihydro-10-methoxy-5-(4-(N-methylaminocarbonyloxy)-2-buten-1-yl)-2,2,4-trimethyl-1H-[1]benzopyrano[3,4-f]quinoline] | ≥ 10000 nM | 28 nM | –
COc1cccc2c1-c1ccc3c(c1C(CCOC(=O)NCc1ccccc1)O2)C(C)=CC(C)(C)N3 (stereo not shown) [Example 200, 2,5-Dihydro-10-methoxy-5-(2-(N-benzylcarbonyloxy)ethyl)-2,2,4-trimethyl-1H-[1]benzopyrano[3,4-f]quinoline] | ≥ 10000 nM | 45 nM | –
